{
  "source": "patent US20260210939A1",
  "about": "“MODIFIED OLFACTORY RECEPTORS” (GIVAUDAN SA, priority 2022, published 2026)",
  "type_in_all_cases": "cell-based",
  "key": {"[1]": {"target": "T1, OR52A5 (Homo sapiens, UniProt Q9H2C5)", "T1 construct": "Improved functional expression of modified OR-genes containing the truncated, optimized C-terminus; expressed in transfected cells; host or cells: HEK293T stably expressing human RTP1S(V227I) and RTP2(L220R)", "T1 sequence (Q9H2C5 with tags, fused parts or gaps)": "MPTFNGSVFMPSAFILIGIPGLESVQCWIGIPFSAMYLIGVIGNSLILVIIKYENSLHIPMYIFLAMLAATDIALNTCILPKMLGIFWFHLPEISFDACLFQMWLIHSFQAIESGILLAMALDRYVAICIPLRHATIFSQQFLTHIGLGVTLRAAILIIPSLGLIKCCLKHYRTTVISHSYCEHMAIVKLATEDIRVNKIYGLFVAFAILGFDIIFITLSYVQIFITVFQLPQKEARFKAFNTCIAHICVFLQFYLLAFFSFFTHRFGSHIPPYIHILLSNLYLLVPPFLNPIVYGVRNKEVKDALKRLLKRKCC", "protocol": "Further variants of the improved C-terminal domain sequence […] (SEQ ID NO: 86) and falling within the general sequence RN[KR][EDQ][VMIL][KR]xA[LIV][KRH][KR][LI][LIF][KRG][KR][KR] (SEQ ID NO: 1) with further amino acids at the C-terminal end (CC) were tested on the class I receptor OR52A5 activated by 4-ethyloctanoic acid. […] This activation is further improved by either replacing amino acid position 4-6 with the sequence QIR or by adding the terminal sequence RRR."}, "[2]": {"target": "T2, OR10A3 (Homo sapiens, UniProt P58181)", "T2 construct": "Class II OR library members with modified C-terminal domains; expressed in transfected cells", "T2 sequence (P58181 with tags, fused parts or gaps)": "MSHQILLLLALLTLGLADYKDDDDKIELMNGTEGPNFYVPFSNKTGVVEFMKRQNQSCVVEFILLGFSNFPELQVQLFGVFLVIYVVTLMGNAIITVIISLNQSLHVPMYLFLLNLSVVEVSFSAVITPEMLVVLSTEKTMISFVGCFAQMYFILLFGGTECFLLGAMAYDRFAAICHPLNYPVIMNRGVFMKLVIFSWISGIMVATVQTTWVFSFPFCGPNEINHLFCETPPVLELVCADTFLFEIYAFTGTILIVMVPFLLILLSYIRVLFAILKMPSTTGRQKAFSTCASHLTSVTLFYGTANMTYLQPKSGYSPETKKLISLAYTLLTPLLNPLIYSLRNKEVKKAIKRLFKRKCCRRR", "experiment": "Dose-response test of single lactones on OR10A3 (luciferase)", "protocol": "In a subsequent de-convultion experiment, the single ingredients were tested in a dose-response test on all the identified OR. […] Thus, OR2AP1 and OR2J2 are particularly strongly activated by the long-chain dodecalactone gamma, while OR10A3 is very sensitive to several longer chain lactones. […] Among the five OR, OR10A3 is the most sensitive."}, "[3]": {"target": "T3, OR8K3 (Homo sapiens, UniProt Q8NH51, D295E/L122R/Y298D)", "T3 construct": "Improved functional expression of modified OR-genes containing the truncated, optimized C-terminus; expressed in transfected cells; host or cells: HEK293T stably expressing human RTP1S(V227I) and RTP2(L220R)", "T3 sequence (Q8NH51 with tags, fused parts or gaps L122R/D295E/Y298D)": "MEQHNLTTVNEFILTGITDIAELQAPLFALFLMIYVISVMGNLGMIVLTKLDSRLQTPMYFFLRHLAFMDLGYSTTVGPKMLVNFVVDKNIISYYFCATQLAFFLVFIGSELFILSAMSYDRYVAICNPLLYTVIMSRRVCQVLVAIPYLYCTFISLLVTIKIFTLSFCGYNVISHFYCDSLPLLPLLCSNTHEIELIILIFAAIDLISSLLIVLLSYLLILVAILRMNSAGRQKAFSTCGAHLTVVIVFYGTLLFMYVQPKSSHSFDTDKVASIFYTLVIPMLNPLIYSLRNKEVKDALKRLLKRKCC", "experiment": "cell-based"}},
  "data": [
    {"compound": "CCCCC(CC)CCC(=O)O", "note": "(stereo not drawn) [4-ethyloctanoic acid, reference compound]", "values": [
      {"measurement": "Comments on efficacy", "setting": "[1]", "result": "2.5-fold lower"},
      {"measurement": "Fold-improvement threshold", "setting": "[1]; changed C-term. vs wild-type", "result": ">10"}
    ]},
    {"compound": "CCCC1CCC(=O)O1", "note": "(stereo not drawn) [Heptalactone gamma]", "values": [
      {"measurement": "EC10, concentration for 10-fold OR activation", "setting": "[2]", "result": 298.04, "unit": "μM"}
    ]},
    {"compound": "CC1CCC(C(C)C)C(O)C1", "note": "(stereo not drawn) [Menthol]", "values": [
      {"measurement": "Comments on efficacy", "setting": "[3]", "result": "3-fold lower"},
      {"measurement": "functional response of chimeric OR8K3", "setting": "[3]; C-terminal sequence of OR1N2 or OR5AN1", "result": "did not show any functional response"},
      {"measurement": "EC50", "setting": "[3]; changed C-term. SEQ ID NO: 86", "result": 115, "unit": "µM"},
      {"measurement": "Fold-improvement potency", "setting": "[3]; changed C-term. vs wild-type", "result": 2},
      {"measurement": "Fold-improvement threshold", "setting": "[3]; changed C-term. vs wild-type", "result": 14.4},
      {"measurement": "EC50", "setting": "[3]; wild-type", "result": 236, "unit": "µM"}
    ]}
  ]
}
